From ChEMBL document CHEMBL1949582, “Suppression of nitric oxide production on LPS/IFN-γ-stimulated RAW264.7 macrophages by a novel catechin, pilosanol N, from Agrimonia pilosa Ledeb” (Bioorg Med Chem Lett, 2012)
Active and inactive are the calls of the source. No cut-off for these calls is given here.

Experiments:
[1] = system: RAW264.7; assay: Antiinflammatory activity in mouse RAW264.7 cells assessed as inhibition of LPS/IFN-gamma-induced NO production at 25 to 100 uM after 20 hrs by Griess method; type: functional, cell-based
[2] = system: RAW264.7; assay: Antiinflammatory activity in mouse RAW264.7 cells assessed as inhibition of LPS/IFN-gamma-induced iNOS protein production at 100 uM by RT-PCR analysis; type: functional, cell-based
[3] = system: RAW264.7; assay: Antiinflammatory activity in mouse RAW264.7 cells assessed as inhibition of LPS/IFN-gamma-induced iNOS gene expression at 25 uM by RT-PCR analysis; type: functional
[4] = system: RAW264.7; assay: Protection against LPS/IFN-gamma-induced cell damage in mouse RAW264.7 cells by MTT assay; type: functional, cell-based
[5] = Antioxidant activity in PBS buffer assessed as nitric oxide scavenging activity by measuring inhibition of nitrite production from NOR3 after 60 mins; type: functional
[6] = system: RAW264.7; assay: Cytotoxicity against mouse RAW264.7 cells assessed as cell viability at 25 to 100 uM by MTT assay; type: cell-based; details: raw264.7, 100 µM
[7] = system: RAW264.7; assay: Antiinflammatory activity in mouse RAW264.7 cells assessed as inhibition of LPS/IFN-gamma-induced NO production after 20 hrs by Griess method; type: functional, cell-based

Question: For `C[C@@H]1O[C@@H](Oc2c(-c3ccc(O)c(O)c3)oc3cc(O)cc(O)c3c2=O)[C@H](O)[C@H](O)[C@H]1O`, which inhibition [1] is on record?
Answer: The inhibition was “Active”.

Question: For `COc1c(C)c(O)c(Cc2c(O)cc(O)c3c2O[C@H](c2ccc(O)c(O)c2)[C@@H](O)C3)c(O)c1C(C)=O` [PILOSANOL N], which inhibition [2] is on record?
Answer: Its inhibition is “Active”.

Question: What about the inhibition at 25 µM [3] of the same molecule?
Answer: Its inhibition at 25 µM is 60%.

Question: What about the Activity [4] of the same molecule?
Answer: Its Activity is “Dose-dependent effect”.

Question: What about the inhibition [5] of the same molecule?
Answer: The inhibition was “Dose-dependent effect”.

Question: And the Activity [6]?
Answer: The Activity was “Non-toxic”.

Question: And the inhibition [7]?
Answer: The inhibition was “Dose-dependent effect”.
